For 28 compounds, EC50 results are on record in patent US8877707B2, “Inhibitors of HCV NS5A” (Presidio Pharmaceuticals, Inc., priority 2010, dated 2014).

Molecules are shown by their SMILES.

The experiment concerns HCV genotype 1b replicon in Huh 7 cells. The experiment in a line: HCV replicon assay (1b_Huh-Luc/Neo-ET cell line, luciferase readout). In kind it is cell-based. Particulars: Hepatitis C virus; Table 1; genotype 1b replicon, Huh 7 cells, 72 h, luciferase; read-out: Inhibition of HCV genotype 1b. In short, it runs like this:
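Replicon level was read as luciferase signal after 72 h compound exposure, triplicate wells, starting the day after cells were plated. Cell line: 1b_Huh-Luc/Neo-ET. Values normalised to control as percent, and EC50 fitted with a variable-slope sigmoid; determinations repeated.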
On the technique in general: Replicon systems follow genome replication, usually without infectious particles.
As to `COC(=O)N[C@H](C(=O)N1CCC[C@H]1c1nc(-c2ccc3cc(-c4ccc(-c5cnc([C@@H]6CCCN6C(=O)[C@H](NC(=O)OC)c6ccc(F)cc6)[nH]5)cc4)ccc3c2)c[nH]1)C1CCOCC1` [compound 111], the EC50 was less than 1 nM.

With `COC(=O)N[C@H](C(=O)N1CCC[C@H]1c1nc(-c2ccc3cc(-c4ccc(-c5cnc([C@@H]6CCCN6C(=O)[C@@H](NC(=O)OC6CCOCC6)c6ccccc6)[nH]5)cc4)ccc3c2)c[nH]1)C1CCOCC1` [compound 112], the EC50 was less than 1 nM.

Turning to `COC(=O)N[C@H](C(=O)N1CCC[C@H]1c1nc(-c2ccc3cc(-c4ccc(-c5cnc([C@@H]6CCCN6C(=O)[C@H](NC(=O)OC6CCOCC6)c6ccccc6)[nH]5)cc4)ccc3c2)c[nH]1)C1CCOCC1` [compound 113], the EC50 is less than 1 nM.

Turning to `COC(=O)N[C@H](C(=O)N1CCC[C@H]1c1nc(-c2ccc3cc(-c4ccc(-c5cnc([C@@H]6CCCN6C(=O)[C@H](NC(=O)OC)c6ccccc6)[nH]5)cc4F)ccc3c2)c[nH]1)C1CCOCC1` [compound 114], the EC50 was less than 1 nM.

In the case of `COC(=O)N[C@H](C(=O)N1CCC[C@H]1c1ncc(-c2ccc3cc(-c4ccc(-c5cnc([C@@H]6CCCN6C(=O)[C@H](NC(=O)OC)c6ccccc6)[nH]5)cc4)ccc3c2)[nH]1)[C@@H](C)OC` [compound 115], the EC50 was less than 1 nM.

As to `COC(=O)N[C@H](C(=O)N1CCC[C@H]1c1ncc(-c2ccc3cc(-c4ccc(-c5cnc([C@@H]6CCCN6C(=O)[C@@H](c6ccccc6)N6CCOCC6)[nH]5)cc4)ccc3c2)[nH]1)C(C)C` [compound 116], the EC50 was less than 1 nM.

In the case of `COC(=O)N[C@H](C(=O)N1CCC[C@H]1c1ncc(-c2ccc3cc(-c4ccc(-c5cnc([C@@H]6CCCN6C(=O)[C@H](NC(=O)OC6CCOCC6)c6ccccc6)[nH]5)cc4)ncc3c2)[nH]1)C1CCOCC1` [compound 117], the EC50 is less than 1 nM.

As for `COC(=O)N[C@H](C(=O)N1CCC[C@H]1c1ncc(-c2ccc3cc(-c4ccc(-c5cnc([C@@H]6CCCN6C(=O)[C@H](NC(=O)OC(C)(C)C)c6ccccc6)[nH]5)cc4)ncc3c2)[nH]1)C1CCOCC1` [compound 118], the EC50 is less than 1 nM.

Consider `COC(=O)N[C@H](C(=O)N1CCC[C@H]1c1ncc(-c2ccc(-c3ccc4cc(-c5cnc([C@@H]6CCCN6C(=O)[C@H](NC(=O)OC)c6ccccc6)[nH]5)ccc4n3)c(F)c2)[nH]1)C(C)C` [compound 119], for which the EC50 is less than 1 nM.

For the compound `COC(=O)N[C@H](C(=O)N1CCC[C@H]1c1ncc(-c2ccc(-c3ccc4cc(-c5cnc([C@@H]6CCCN6C(=O)[C@@H](NC(=O)OC)C6CCOCC6)[nH]5)ccc4n3)c(F)c2)[nH]1)C(C)C` [compound 120], the EC50 is less than 1 nM.

`COC(=O)N[C@H](C(=O)N1CCC[C@H]1c1ncc(-c2ccc(-c3ccc4cc(-c5cnc([C@@H]6CCCN6C(=O)[C@H](NC(=O)OC6CCOCC6)c6ccccc6)[nH]5)ccc4n3)c(F)c2)[nH]1)C(C)C` [compound 121]: the EC50 was less than 1 nM.

Consider `COC(=O)N[C@H](C(=O)N1CCC[C@H]1c1ncc(-c2ccc(-c3ccc4cc(-c5cnc([C@@H]6CCCN6C(=O)[C@H](NC(=O)OC(C)(C)C)c6ccccc6)[nH]5)ccc4n3)c(F)c2)[nH]1)C(C)C` [compound 122], for which the EC50 was less than 1 nM.

In the case of `COC(=O)N[C@H](C(=O)N1CCC[C@H]1c1ncc(-c2ccc(-c3ccc4cc(-c5cnc([C@@H]6CCCN6C(=O)[C@@H](NC(=O)OC)C6CCOCC6)[nH]5)ccc4n3)cc2F)[nH]1)C(C)C` [compound 123], the EC50 is less than 1 nM.

Turning to `COC(=O)N[C@H](C(=O)N1CCC[C@H]1c1ncc(-c2ccc(-c3ccc4cc(-c5cnc([C@@H]6CCCN6C(=O)[C@H](NC(=O)OC)c6ccccc6)[nH]5)ccc4n3)cc2F)[nH]1)C(C)C` [compound 124], the EC50 was less than 1 nM.

Regarding `COC(=O)N[C@H](C(=O)N1CCC[C@H]1c1ncc(-c2ccc(-c3ccc4cc(-c5cnc([C@@H]6CCCN6C(=O)[C@H](NC(=O)OC6CCOCC6)c6ccccc6)[nH]5)ccc4n3)cc2F)[nH]1)C(C)C` [compound 125], the EC50 was less than 1 nM.

`COC(=O)N[C@H](C(=O)N1CCC[C@H]1c1ncc(-c2ccc3nc(-c4ccc(-c5cnc([C@@H]6CCCN6C(=O)[C@@H](NC(=O)OC)C(C)C)[nH]5)c(F)c4)ccc3c2)[nH]1)C(C)C` [compound 126]: the EC50 was less than 1 nM.

On to `COC(=O)N[C@H](C(=O)N1CCC[C@H]1c1ncc(-c2ccc3cc(-c4ccc(-c5cnc([C@@H]6CCCN6C(=O)[C@H](NC(=O)OC)c6ccccc6)[nH]5)c(F)c4)ncc3c2)[nH]1)C1CCOCC1` [compound 127], for which the EC50 is less than 1 nM.

As to `COC(=O)N[C@H](C(=O)N1CCC[C@H]1c1ncc(-c2ccc(-c3cc4ccc(-c5cnc([C@@H]6CCCN6C(=O)[C@@H](NC(=O)OC)C6CCOCC6)[nH]5)cc4cn3)cc2F)[nH]1)C(C)C` [compound 128], the EC50 was less than 1 nM.

Turning to `COC(=O)N[C@H](C(=O)N1CCC[C@H]1c1ncc(-c2ccc(-c3ccc4cc(-c5cnc([C@@H]6CCCN6C(=O)[C@H](NC(=O)OC)c6ccccc6)[nH]5)ccc4n3)c(F)c2)[nH]1)C1CCOCC1` [compound 129], the EC50 was less than 1 nM.

As to `COC(=O)N[C@H](C(=O)N1CCC[C@H]1c1ncc(-c2cccc(-c3cccc4cc(-c5cnc([C@@H]6CCCN6C(=O)[C@@H](NC(=O)OC)C(C)C)[nH]5)ccc34)c2)[nH]1)C(C)C` [compound 130], the EC50 is less than 1 nM.

Turning to `COC(=O)N[C@H](C(=O)N1CCC[C@H]1c1ncc(-c2ccc3cc(-c4ccc(-c5cnc([C@@H]6COCCN6C(=O)[C@H](NC(=O)OC)c6ccccc6)[nH]5)cc4)ccc3c2)[nH]1)C(C)C` [compound 131], the EC50 is less than 1 nM.

Consider `COC(=O)N[C@H](C(=O)N1CCC[C@H]1c1ncc(-c2ccc(-c3ccc4cc(-c5cnc([C@@H]6COCCN6C(=O)[C@H](NC(=O)OC)c6ccccc6)[nH]5)ccc4c3)cc2)[nH]1)C(C)C` [compound 132], for which the EC50 was less than 1 nM.

On to `COC(=O)N[C@H](C(=O)N1CCC[C@H]1c1ncc(-c2ccc(-c3ccc4cc(-c5cnc([C@@H]6CCCN6C(=O)[C@@H](NC(=O)OC)C6CCOCC6)[nH]5)ccc4c3)cc2)[nH]1)C1CCOCC1` [compound 133], for which the EC50 is less than 1 nM.

As to `COC(=O)N[C@H](C(=O)N1CCC[C@H]1c1ncc(-c2ccc3nc(-c4ccc(-c5cnc([C@@H]6CCCN6C(=O)[C@H](NC(=O)OC)c6ccccc6)[nH]5)cc4F)ccc3c2)[nH]1)C1CCOCC1` [compound 134], the EC50 is less than 1 nM.

Regarding `COC(=O)N[C@H](C(=O)N1CCC[C@H]1c1ncc(-c2ccc3nc(-c4ccc(-c5cnc([C@@H]6CCCN6C(=O)[C@H](NC(=O)OC(C)(C)C)c6ccccc6)[nH]5)cc4F)ccc3c2)[nH]1)C1CCOCC1` [compound 135], the EC50 is less than 1 nM.

Turning to `COC(=O)N[C@H](C(=O)N1CCC[C@H]1c1ncc(-c2ccc(-c3ccc4cc(-c5cnc([C@@H]6CCCN6C(=O)[C@H](NC(=O)OC(C)(C)C)c6ccccc6)[nH]5)ccc4n3)c(F)c2)[nH]1)C1CCOCC1` [compound 136], the EC50 was less than 1 nM.

Regarding `COC(=O)N[C@H](C(=O)N1CCOC[C@H]1c1ncc(-c2ccc(-c3ccc4cc(-c5cnc([C@@H]6CCCN6C(=O)[C@H](NC(=O)OC)c6ccccc6)[nH]5)ccc4c3)cc2)[nH]1)C(C)C` [compound 137], the EC50 is less than 1 nM.

With `COC(=O)N[C@H](C(=O)N1CCOC[C@H]1c1ncc(-c2ccc3cc(-c4ccc(-c5cnc([C@@H]6CCCN6C(=O)[C@H](NC(=O)OC)c6ccccc6)[nH]5)cc4)ccc3c2)[nH]1)C(C)C` [compound 138], the EC50 was less than 1 nM.
